Holding throughout (assay): DTP human tumour cell line panel, 48 h
The test system of assay [1] is 786-0 renal.
Assay [2] relates to BT-549 breast.
The test system of assay [3] is CAKI-1 renal.
The test system of assay [4] is HCC-2998 colon.
Assay [5] deals with M14 melanoma.
The test system of assay [6] is MDA-MB-231 breast.
In assay [7] the test system is NCI-H23 lung.
Assay [8] has as its system NCI-H460 lung.
The subject of assay [9] is OVCAR-3 ovarian.
Assay [10] relates to OVCAR-4 ovarian.
For assay [11], the system named is PC-3 prostate.
Assay [12] concerns RXF 393 renal.
Assay [13] concerns SF-539 CNS.
Assay [14] relates to SK-MEL-28 melanoma.
The subject of assay [15] is SK-OV-3 ovarian.
The test system of assay [16] is SN12C renal.
Assay [17] relates to T-47D breast.
The test system of assay [18] is UACC-257 melanoma.
In assay [19] the test system is UACC-62 melanoma.
Assay [20] relates to HT29 colon.

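96-well plates; 48 h exposure; 5 concentrations. Endpoints by linear interpolation between flanking doses. Not reached: highest tested concentration assigned. TGI is the concentration that stops growth completely.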

Regarding `C=CCn1c(-c2ccc(Cl)cc2)csc1=Nc1ccccc1OC`, the concentration for total growth inhibition (TGI) is greater than 100 µM in assay [1]; greater than 100 µM in [2]; greater than 100 µM in assay [3]; greater than 100 µM in assay [4]; greater than 87.9 µM in assay [5]; greater than 100 µM in assay [6]. Also, the concentration for total growth inhibition (TGI) in [7], in assay [8], in assay [9], in assay [10], in assay [11] and in assay [12] was greater than 100 µM throughout. Moreover, the total growth inhibition concentration (TGI) was greater than 100 µM in assay [13]; greater than 100 µM in assay [14]; greater than 100 µM in assay [15]; greater than 100 µM in [16]; 8.5 µM in assay [17]; 29.7 µM in [18]. For the same compound, the TGI in assay [19] is greater than 94 µM.
In the case of `Cc1cc(N(CCC#N)CCC#N)ccc1/C(N=Nc1ccc([N+](=O)[O-])cc1)=N\NC(=O)c1ccccc1`, the TGI was greater than 100 µM in [1]; greater than 100 µM in assay [2]; greater than 100 µM in [3]; greater than 100 µM in assay [4]; 71.4 µM in assay [20]; greater than 100 µM in assay [5]. Also, the TGI in assay [6], in assay [7], in assay [8], in assay [9], in assay [10] and in assay [11] was greater than 100 µM each time. Also, the TGI in assay [12] is greater than 100 µM; in assay [13], 92.9 µM; in assay [15], greater than 100 µM; in assay [16], greater than 100 µM; in [17], 97.1 µM; in assay [18], greater than 100 µM. The compound also had a total growth inhibition concentration (TGI) in [19] greater than 100 µM.
In the case of `CCOC(=O)c1nc2cc(C(F)(F)F)ccc2nc1Oc1ccc(F)cc1`, the concentration for total growth inhibition (TGI) in assay [1], in assay [2], in assay [3], in assay [4], in assay [5] and in [6] was greater than 100 µM throughout. The TGI in [8], in [9], in [10], in [11], in assay [12] and in assay [13] was greater than 100 µM each time. Also, the total growth inhibition concentration (TGI) in assay [14], in assay [16], in assay [17], in assay [18] and in [19] was greater than 100 µM in each case.
Regarding `CCOC(=O)/C=C(/C(=O)OCC)n1ccc(=O)n(Cc2cnnn2CCCCOC(C)=O)c1=O`, the concentration for total growth inhibition (TGI) in [1] was greater than 100 µM; in [2] it was greater than 100 µM; in [3] it was 76.3 µM; in [4], greater than 100 µM; in assay [20], greater than 100 µM; in assay [6] it was greater than 100 µM. For the same compound, the total growth inhibition concentration (TGI) in assay [7], in assay [8], in assay [9], in [10], in assay [11] and in assay [12] was greater than 100 µM in each case. For the same compound, the concentration for total growth inhibition (TGI) in assay [13], in assay [14], in assay [15], in assay [16], in assay [17] and in assay [18] was greater than 100 µM throughout. In [19], this compound gave a TGI greater than 100 µM.
For the compound `N#Cc1c(-c2ccccc2)cc(Nc2ccc(Cl)cc2)n2c1nc1ccccc12`, the TGI in assay [1] is greater than 39.7 µM; in assay [2], greater than 100 µM; in [3] it was greater than 30.7 µM; in assay [4], greater than 100 µM; in assay [20], 11.4 µM; in assay [5], greater than 100 µM. Moreover, the total growth inhibition concentration (TGI) in assay [6] was greater than 47.4 µM; in [7], greater than 100 µM; in [8], greater than 37.6 µM; in [9] it was 11 µM; in assay [10], greater than 100 µM; in assay [11], greater than 48 µM. Further, the total growth inhibition concentration (TGI) in assay [12] is greater than 100 µM; in [13] it was greater than 49.5 µM; in assay [14], greater than 100 µM; in assay [15] it was greater than 30.4 µM; in assay [16], greater than 32.2 µM; in [17], greater than 43 µM. Also, the TGI in [18] was greater than 28.8 µM; in [19], greater than 100 µM.
As to `Nc1c2cc3ccc2nc2ccc(cc12)OCCOCCOCCOCCOCCOCCO3`, the TGI in [1], in [2], in assay [3], in assay [4], in assay [20] and in [5] was greater than 10 µM each time. Further, the concentration for total growth inhibition (TGI) in assay [6], in assay [7], in [8], in assay [9], in [10] and in assay [11] was greater than 10 µM throughout. The concentration for total growth inhibition (TGI) in [12], in assay [13], in assay [14], in [15], in [16] and in assay [17] was greater than 10 µM each time. Moreover, the TGI in [18] and in assay [19] was greater than 10 µM each time.
As to `COc1ccc2c(c1OC)C(=O)O[C@@H]2[C@H]1c2c(cc3c(c2OC)OCO3)CCN1C`, the concentration for total growth inhibition (TGI) in [1], in assay [2], in assay [3], in assay [4], in assay [20] and in assay [5] was greater than 100 µM in each case. Further, the TGI is greater than 100 µM in assay [6]; greater than 100 µM in assay [7]; greater than 100 µM in [8]; 49.9 µM in [9]; greater than 100 µM in assay [10]; greater than 100 µM in assay [11]. Further, the total growth inhibition concentration (TGI) in [12], in assay [13], in assay [14], in assay [15], in assay [16] and in assay [17] was greater than 100 µM throughout. Besides, the TGI in assay [18] and in [19] was greater than 100 µM throughout.

(Values after PubChem BioAssay (NCI).)
